Source: US10221163B2 (priority 2015, dated 2019)
Like-named read-outs stand apart in the source and are kept apart here.

Legend:
[1] = system: Pseudomonas aeruginosa MB9798 vs MB9799; conditions: ratio MITC95 PA_9798/MITC95 PA_9799
How it was run: (§1)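 P. aeruginosa PAO1-derived IMP-1 strains, efflux+ MB9798 and efflux− MB9799, tested by standard microbroth MIC with imipenem and/or ceftazidime fixed, usually at CLSI breakpoint, plus fixed class A/C β-lactamase inhibitor against AmpC. Inhibitor titrated; concentration restoring susceptibility recorded; MB9798/MB9799 fold difference indicates efflux.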

[2] = system: Pseudomonas aeruginosa efflux− (MB9799), IMP-1; format: cell-based; conditions: concentration restoring susceptibility to imipenem at 2 μg/mL in the presence of a class A, C, D serine β-lactamase inhibitor closely related to relebactam
How it was run: as §1

[3] = system: Escherichia coli expressing NDM-1 (CLB30005, CLB30016); format: cell-based; conditions: NDM-1 strain, with imipenem 1 μg/ml, 95% inhibition of growth
How it was run: (§2)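 Growth by absorbance after 22–24 h at 35°C defined the read-out, with imipenem fixed at 1 μg/ml alongside compound. Inocula came from overnight blood-agar colonies at 35°C, resuspended in saline and diluted 1:100 in 1.1×CAMHB.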

[4] = system: Serratia marcescens expressing IMP-1 (CL5741); format: cell-based; conditions: IMP-1 strain CL5741, with imipenem 1 μg/ml, 95% inhibition of growth
How it was run: as §2

[5] = system: Klebsiella pneumoniae expressing VIM-1 (IHMA599644); format: cell-based; conditions: VIM-1 strain IHMA599644, with imipenem 1 μg/ml, 95% inhibition of growth
How it was run: as §2

[6] = system: Pseudomonas aeruginosa efflux+ (MB9798), IMP-1; format: cell-based; conditions: concentration restoring susceptibility to imipenem at 2 μg/mL in the presence of a class A, C, D serine β-lactamase inhibitor closely related to relebactam
How it was run: as §1

VIM-1 = VIM-1 (Pseudomonas aeruginosa (strain ATCC 15692 / DSM 22644 / CIP 104116 / JCM 14847 / LMG 12228 / 1C / PRS 101 / PAO1), UniProt A0A0F7KYQ8); assay: biochemical; conditions: CCF2-FA substrate, 30 pM enzyme, 2 hours at 25° C.
How it was run: (§3)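 Two-hour, 25° C incubation of enzyme with inhibitor and CCF2-FA (7-hydroxycoumarin–cephalosporin–fluorescein). Fluorescence read-out; IC50 via 4-parameter fit.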

IMP-1 = IMP-1 (Serratia marcescens, UniProt P52699); assay: biochemical; format: biochemical; conditions: fluorescence assay, CCF2-FA substrate, 2 pM enzyme, 2 hours at 25° C.; read-out: IMP-1 IC50
Chain of IMP-1 (P52699 whole entry, looked up, species assumed): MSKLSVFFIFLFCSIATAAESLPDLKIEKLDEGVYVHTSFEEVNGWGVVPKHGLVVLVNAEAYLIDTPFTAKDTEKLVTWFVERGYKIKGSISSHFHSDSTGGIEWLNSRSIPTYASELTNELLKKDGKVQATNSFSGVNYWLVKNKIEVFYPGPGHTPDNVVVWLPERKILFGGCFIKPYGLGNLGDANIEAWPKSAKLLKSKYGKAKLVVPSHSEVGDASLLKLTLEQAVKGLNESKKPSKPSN
How it was run: as §3

NDM-1 = NDM-1 (Klebsiella pneumoniae, UniProt C7C422); assay: biochemical; format: biochemical; conditions: fluorescence assay, CCF2-FA substrate, 1 pM enzyme, 2 hours at 25° C.; read-out: NDM-1 IC50
Chain of NDM-1 (C7C422 whole entry, looked up, species assumed): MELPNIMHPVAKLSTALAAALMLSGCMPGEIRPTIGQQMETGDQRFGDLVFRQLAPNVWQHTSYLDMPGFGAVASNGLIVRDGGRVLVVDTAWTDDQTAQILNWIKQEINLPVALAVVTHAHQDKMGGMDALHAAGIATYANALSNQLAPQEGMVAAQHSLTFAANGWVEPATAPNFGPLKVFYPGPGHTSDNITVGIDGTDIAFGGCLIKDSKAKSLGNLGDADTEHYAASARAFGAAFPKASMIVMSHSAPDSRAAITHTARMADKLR
How it was run: as §3

[7] = fluorescence assay, read-out: VIM-1 IC50

Compound	Efflux ratio [1]	P. aeruginosa expressing IMP-1, efflux − (MB9799) MITC95 [2] [µM]	Escherichia coli MITC95 [3] [µM]	Serratia marcescens MITC95 [4] [µM]	Klebsiella pneumoniae MITC95 [5] [µM]	P. aeruginosa expressing IMP-1, efflux + (MB9798) MITC95 [6] [µM]	IC50 (VIM-1; [7]) [pM]	IC50 (IMP-1) [pM]	IC50 (NDM-1) [pM]	IC50 (VIM-1; VIM-1 IC50, fluorescence assay) [pM]
Nc1ccc2cccc(-c3ccc(S(=O)(=O)N[C@H]4CNC[C@H]4N)c(S(N)(=O)=O)c3-c3nn[nH]n3)c2n1 [Example 324, N1-((3S,4R)-4-aminopyrrolidin-3-yl)-4-(2-aminoquinolin-8-yl)-3-(1H-tetrazol-5-yl)benzene-1,2-disulfonamide]	1.00	0.7813	1.563	0.7813	1.563	0.7813	130	213	38.7	–
Nc1ncc(-c2ccc(S(=O)(=O)N[C@H]3CNC[C@H]3N)c(S(N)(=O)=O)c2-c2nn[nH]n2)s1 [Example 325, N1-((3S,4R)-4-aminopyrrolidin-3-yl)-4-(2-aminothiazol-5-yl)-3-(2H-tetrazol-5-yl)benzene-1,2-disulfonamide]	2.00	0.7813	0.7813	1.563	3.125	1.563	–	1220	724	896
N[C@@H]1CNC[C@@H]1NS(=O)(=O)c1ccc(-c2cnc3cc[nH]c3c2)c(-c2nn[nH]n2)c1S(N)(=O)=O [Example 326, N1-((3S,4R)-4-aminopyrrolidin-3-yl)-4-(1H-pyrrolo[3,2-b]pyridin-6-yl)-3-(2H-tetrazol-5-yl)benzene-1,2-disulfonamide]	1.00	1.563	0.7813	1.563	1.563	1.563	–	650	50.2	115
Nc1nc(-c2cccc(-c3ccc(S(=O)(=O)N[C@H]4CNC[C@H]4N)c(S(N)(=O)=O)c3-c3nn[nH]n3)c2)c[nH]1 [Example 327, 3′-(2-amino-1H-imidazol-4-yl)-N4-((3S,4R)-4-aminopyrrolidin-3-yl)-2-(2H-tetrazol-5-yl)-[1,1′-biphenyl]-3,4-disulfonamide]	2.00	0.7813	3.125	3.125	1.563	1.563	–	1410	259	649
N[C@@H]1CNC[C@@H]1NS(=O)(=O)c1ccc(-c2cccn3ccnc23)c(-c2nn[nH]n2)c1S(N)(=O)=O [Example 328, N1-((3S,4R)-4-aminopyrrolidin-3-yl)-4-(imidazo[1,2-a]pyridin-8-yl)-3-(2H-tetrazol-5-yl)benzene-1,2-disulfonamide]	1.00	1.563	0.7813	1.563	3.125	1.563	–	340	140	165
Cc1ccc(-c2ccc(S(=O)(=O)NCCN)c(S(N)(=O)=O)c2-c2nn[nH]n2)c2nc(N)[nH]c12 [Example 329, 4-(2-Amino-7-methyl-1H-benzo[d]imidazol-4-yl)-N1-(2-aminoethyl)-3-(2H-tetrazol-5-yl)benzene-1,2-disulfonamide]	2.00	0.7813	1.563	1.563	1.563	1.563	43	128	15.3	–
